Data on four molecules can be found in US5358936A, “Anionic furanose derivatives, methods of making and using the same” (Gordon; Paul, priority 1991, dated 1994).

In series [1] the test system is peritoneal neutrophils. Put plainly: In vitro neutrophil chemotaxis toward zymosan-activated rat serum (Example 24). The series is classed as cell-based, mouse. To be noted: for IC50: 6 h, 20 percent zymosan-activated rat serum, six hours, 37° C., read-out: ID50 (molar concentration that inhibited chemotaxis by 50 percent); for inhibition at 10 µg/mL: dose 10.0 μg/ml. As to the method:
In vitro neutrophil chemotaxis studies were carried out by standard methods, as follows:
Mice were injected with complete Freund's adjuvant (CFA) and peritoneal cells, principally neutrophjls (>90 percent), were reproved from the mice 24 hours thereafter. Blind-well chemotactic chambers (Nucleopore Corp., Pleasanton, Calif.) were utilized.
Medium (RPMI 1640 plus 10 percent fetal calf serum) or medium plus 20 percent zymosan-activated rat serum (ZAS) was added to the lower compartment of each chamber. A nucleopore filter (8 μm pore size) was placed between compartments and 1×10^5 peritoneal neutrophils (above) suspended in medium were placed in the upper compartment. Chambers were incubated for six hours, after which time the filters were removed and stained with Giemsa stain. The number of cells on the lower surface of the filter was counted under a microscope. Treatment groups were assayed in duplicate.
The studies were carried out more specifically as follows:
Zymosan (Sigma Chemical Co., St. Louis, Mo.) was mixed with rat serum for one hour at 37° C. at 1 milligram (mg)/ml. The resulting chemoattractant composition was filtered, aliquotted and stored frozen at -70° C. prior to use.
The above chemoattractant composition was used as a 20 percent v/v solution in medium.
The chemotaxis chambers were arranged as follows:
The chambers were incubated at 37° C. for six hours, after which the chambers were dismantled, and the filters removed and treated as follows:
a) The filters were immersed in Giemsa stain diluted 1:50 for 30-45 minutes.
b) The stained filters were rinsed gently in distilled water for 3-5 minutes.
c) The stained, rinsed filters were air dried without blotting.
Several compounds described herein and control compounds ("drug", above) were examined at various concentrations, in duplicate. The molar concentration of a drug that inhibited the observed chemotaxis by 50 percent, defined as the ID50 value, was determined as shown below.

Series [2] relates to neutrophils. As to the kind of experiment: Microscopic examination of neutrophils for cytotoxicity (Example 24). The series is classed as cell-based, mouse.
Series [3] deals with rat paw. Put plainly: Post-ischemic reperfusion paw swelling (Example 22). The series is classed as in vivo, Sprague Dawley male rats. To be noted: study C, 0.2 mg/kg i.p. From the text: This important disease model is used to evaluate aspects of tissue injury that occur in heart attack, or myocardial infarction, and stroke. Under these conditions, a significant period of injury can occur after blood flow has been restored, during the period of reperfusion.
To produce ischemia, blood flow to the left hind foot was largely interrupted by application of a tourniquet made up of two size 18 rubber bands wound eight times around the leg just behind the heel. […] Both application and removal of tourniquet were carried out under ether anesthesia. Injury was equated with organ swelling, which was assayed by measurement of the dorsoventral foot diameter with a Schnelltaster caliper, just before application of the tourniquet and at various times following tourniquet removal, during the reperfusion period.
Rats employed were Sprague Dawley males, weighing 240-280 grams. Drug comparisons were made here employing measurements 30 minutes into the reperfusion period. The widely studied drug allopurinol, a xanthine oxidase inhibitor and a free radical scavenging agent, used in the treatment of gout, and widely used to suppress experimental post-ischemic reperfusion injury was used as an experimental treatment standard. In studies below, allopurinol and all new drugs were given intraperitoneally 45-60 minutes prior to application of the tourniquet. Data are reported as the mean swelling (Mn)±standard error (SE). […] Group n is 5 or 6.
In another study, drug comparisons were made at various times after the reperfusion period. In this study, control and drug treatment groups were as above.

Series [4] has as its system focal submucosal lesions. As to the kind of experiment: Ethanol-induced gastric focal lesions (Example 33). Format: in vivo, rat. As to the method: At three hours after ethanol administration, this drug continued to suppress ethanol-induced focal lesions (-57 percent).
A suspension of 25 mg/kg sucralfate+25 mg/kg Compound III:Al in combination was given as a pretreatment administration to another group in the same study. The combination produced an unanticipated augmentation of therapeutic effect against ethanol-induced focal submucosal lesions (-90 percent) at three hours post-ethanol administration. The same interactive phenomenon was also observed when Compound III was used, rather than Compound III:Al.

Series [5] has as its system gastric mucosal ulcers. Put plainly: Healing of established gastric ulcers induced by acetic acid (Example 34). The series is classed as in vivo, rat. From the text:
To evaluate drug effects on peptic ulcer healing, gastric mucosal ulcers were produced in rats, after a two day fast, by a modification of the method of Konturek et al., Am. J. Med., Vol. 86, 6A, 32 (1989). Briefly, to produce a mucosal ulcer, Konturek et al. applied 100 percent acetic acid for twenty seconds to the stomach serosa through a small cylindrical mold, 4.2 mm in diameter. The aim here was to make ulceration more severe than was achieved by the Konturek group so that spontaneous healing would not be as pronounced as they found in the controls, over an experimental period of seven days.
All drugs studied were suspended in 0.25 percent (by weight) aqueous methylcellulose solution as the vehicle or diluent, which also served as the placebo given to the controls. Treatments were given once daily by oral gavage, in one milliliter of vehicle. The treatment groups were: Control; Sucralfate at 200 mg/kg; and Compound III:Al at 200 mg/kg.
At the end of the treatment period, stomachs were removed, ulcer diameters were measured, and determination was made of the presence or absence of perforation.
A second study was carried out in which ulcer evolution was permitted to take place over five additional days, in the absence and presence of treatment with Sucralfate.
A third study was begun one day following the start of study 2, in which ulcer evolution was allowed to take place over five additional days, in the absence and presence of treatment with Compound III:Al.
In another study, after ulcer induction as above, a different dosage protocol was employed at 24 hours to evaluate the interaction of Compound III and orally administered sucralfate on ulcer healing. […] Here, daily drug doses of the following were used: (a) sucralfate at 200 mg/kg, alone and (b) in combination with 80 mg/kg Compound III given by mouth at -45 minutes, and, in a third group, (c) in combination with 10 mg/kg Compound III given IV also at -45 minutes. In this interaction study, drug treatment was continued for three and not five days, as was the case for the above studies, followed by passage of two additional non-treatment days before sacrifice of animals for evaluation of stomach ulcer area and perforation.
Data from all ulcer-healing studies employing a drug dosage of 200 mg/kg and the same ulcerogenesis protocol were pooled as to the frequency of gastric perforation observed on day five, not shown separately, with the day six perforation data shown above.

The nature of series [6]: Solubility / dissolution in acid, water and 20 percent methanol. The series is classed as physicochemical. To be noted: pH 1.2; Compound III:Al 2.5 mg/ml.
The test system of series [7] is focal submucosal lesions. Put plainly: Ethanol-induced gastric focal lesions (Example 33). The series is classed as in vivo, rat. Conditions: one hour post-ethanol, 50 mg/kg.
The nature of series [8]: Dissolution and buffering of suspensions, HCl titration (Example 16).
Text: Note that the term "apparent pK" in this context is meant to encompass the maximization of buffering that come both from solid-state dissolution and its titration as solute.
The subject of series [9] is mouse blood coagulation.
Experimental: To assess the effect on coagulation, if any, of a compound of the invention, a comparative evaluation was made using mouse blood.
One ml of freshly drawn mouse blood was added to each tube, and the tube contents were mixed. The clotting time was then noted for each tube, and the results are as shown below:
Setting [10] is: Mus musculus, Neutrophil, dose 1.0 μg/ml, read-out: Percent Inhibition of chemotaxis.
Where [11] appears, read: Mus musculus, Neutrophil, read-out: Percent Inhibition of chemotaxis.
The mark [12] stands for this setting: three hours post-ethanol, 50 mg/kg, combination 25 + 25 mg/kg.

Several values for one entry are separate records, joined by “and”; a condition that tells them apart may be missing. Equal entries are not always repeated. Entries after “also recorded” stand apart in the source; their conditions may differ. Structures can show the parent of a compound that is named as a salt.

Usually inhibition stands for the share of the control response that was lost under treatment. On to `CC1(C)O[C@H]2O[C@H]([C@H](O)COP(=O)(O)O)[C@H](OP(=O)(O)O)[C@H]2O1` [Compound VI, 1,2-O-(2-Propylidene)-3,6-di-O-phospho-α-D-glucofuranose, tetrapotassium salt], for which the IC50 in series [1] (Mus musculus, Neutrophil) turned out to be 1000 nM. The inhibition at 1 µg/mL in series [1] (setting [10]) stood at 44%. Besides, the inhibition at 10 µg/mL in series [1] (setting [11]) is 85%. Moreover, the “Percent Inhibition of chemotaxis” value in [1] (dose 1.0 μg/ml) came to 47.0%. For the same molecule, in [2], the “expressions of cytotoxicity in neutrophils by microscopic examination” value was “diffuse toxic granularity in the cells”. Besides, in [3] (control 18.4 ± 0.54, P < 0.02), the “Post-ischemic reperfusion 30 minute paw swelling, Mn ± SE” value is reported as 9.1 ± 0.27 0.1 mm. For the same molecule, in series [3] (30 minutes), the “Swelling change as a result of treatment” value is recorded as -50%.

In the case of `CCCN(CCC)S(=O)(=O)c1ccc(C(=O)O)cc1` [Probenecid, reference compound], the IC50 in [1] (Mus musculus, Neutrophil) is 3000 nM. Moreover, the inhibition at 0.1 µg/mL in series [1] (Mus musculus, Neutrophil, dose 0.1 μg/ml, read-out: Percent Inhibition of chemotaxis) worked out at 5.5%. In series [1] (setting [10]), the inhibition at 1 µg/mL is 59.5%. Also, the inhibition at 10 µg/mL in series [1] (setting [11]) was found to be 89.5%. Also, the “expressions of cytotoxicity in neutrophils by microscopic examination” value in series [2] is “stringy, elongated deformation in the neutrophils”.

With “Aluminum Complex of 1,2-O-(1-Isopropylidene)-3,5,6-Tri-O-Sulfo-D-Glucofuranose [Compound III:Al]”, the “effect on ethanol-produced gastric pathology, in words” value in series [4] (pretreatment 50 mg/kg one hour before ethanol) was “inhibited all focal lesions provoked by ethanol after one hour without suppressing large-vessel vasodilation”. The “change in focal lesions versus control” value in series [4] (setting [12]) is -57%; in series [7] it was -100%. Also, the “change in focal lesions versus control, study employing Compound III” value in series [4] (setting [12]) is reported as -33%. Besides, in [4] (three hours post-ethanol, 50 mg/kg, combination 25 + 25 mg/kg, control 2.25 ± 0.98), the “Focal Lesions per Stomach, study employing Compound III” value is reported as 1.50 + 0.76 per Stomach. For the same molecule, the “Focal Lesions per Stomach” value is 2.12 ± 0.87 per Stomach in [4] (three hours post-ethanol, 50 mg/kg, combination 25 + 25 mg/kg, n = 17, control 4.94 ± 1.41) and 0.00 per Stomach in series [7] (n = 6, control 4.17 ± 1.58, p<0.05). Also, the “DRUG EFFECT on mean ulcer score” value in series [5] (Day 6, 200 mg/kg oral) is listed as -80%. For the same molecule, in [5] (Day 6, 200 mg/kg oral once daily, * = perforation, 200 mg/kg), the “Established ulcer score, individual animal (area in cm^2, + 2.0 for perforation)” value is 1.2 and 5.75 and 0.72 and 0.8 and 0.5 and 0.3 and 0.56 and 1.4 and 0.90 and 1.44. In addition, the “MEAN SCORE, established ulcers” value in [5] (Day 6, 200 mg/kg oral, controls 3.03 ± 0.73 (sucralfate study, not significant), 4.12 ± 0.67 (Compound III:Al study, P < 0.001)) is 0.82 ± 0.13. For the same molecule, in [5] (day six, 200 mg/kg oral), the “DRUG EFFECT on mean ulcer area” value is -65%. Further, in [5] (day six, 200 mg/kg oral, controls 2.14 ± 0.43 (sucralfate, P < 0.1), 2.32 ± 0.61 (Compound III:Al, P < 0.05)), the “Established ulcer area, MEAN” value was 0.82 ± 0.13 CM^2. Besides, the “Perforation As Percent” value in [5] (pooled, 200 mg/kg, control 50, Compound III:Al P < 0.001 vs control and vs sucralfate) worked out at 0%. The “Perforation Frequency” value in series [5] (pooled, 200 mg/kg, days five and six, control 26/52) is given as 0/49. The “dissolution of suspension in acid” value in series [6] is given as “still not all dissolved”. Moreover, the “HCl needed to lower pH of suspension to below pH 2.00” value in series [8] (50 mg in 20 ml distilled water, initial pH 4.44 (aluminum trihydroxide), 4.91 (sucralfate), 4.23 (Compound III:Al), water alone 0.30) came to 1.2 meq. Further, the “buffering action, in words” value in series [8] (HCl titration) is “better dissolution-and-buffering action between pH 4.5 and 2.0 than either aluminum trihydroxide or sucralfate; also recorded: no buffering power whatsoever at this pH value”. The “Relative Buffering Power between pH 4.5 and 2.0” value in [8] (sucralfate = 1) is recorded as 11.

Consider Heparin, for which the “effect on blood coagulation, in words” value in series [9] is “uncoagulatable after 60 minutes”.
